Laboratory results published in ChEMBL document CHEMBL4011595, “Design, synthesis and structure-activity relationship studies of novel free fatty acid receptor 1 agonists bearing amide linker” (Bioorg Med Chem, 2017).

Legend:
[1] = biological target: T1, Free fatty acid receptor 1 (Homo sapiens, UniProt O14842); assay: Agonist activity at human FFA1 expressed in CHO cells assessed as increase in intracellular Ca2+ flux at 1 uM measured for 90 secs by Fluo4-AM dye based FLIPR assay relative to control; assay type: functional, cell-based
T1 sequence (O14842 whole entry): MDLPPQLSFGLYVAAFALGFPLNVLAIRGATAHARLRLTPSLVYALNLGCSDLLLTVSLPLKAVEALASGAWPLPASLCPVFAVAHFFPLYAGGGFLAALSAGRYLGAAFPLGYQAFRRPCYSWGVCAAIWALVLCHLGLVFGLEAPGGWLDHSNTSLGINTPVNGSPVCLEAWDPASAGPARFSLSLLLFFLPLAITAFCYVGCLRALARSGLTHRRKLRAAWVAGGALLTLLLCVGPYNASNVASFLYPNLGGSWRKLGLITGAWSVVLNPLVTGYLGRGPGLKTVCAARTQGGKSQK

[2] = test system: Mus musculus; assay: Antidiabetic activity in HFD/STZ-induced type2 diabetic C57BL/6 mouse assessed as decrease in blood glucose AUC at 20 mg/kg, po administered as single dose 60 mins prior to glucose challenge measured 120 mins post dose by OGTT relative to control; assay type: functional; design: scale not given: the % may be the effect or the level left
[3] = test system: Mus musculus; assay: Anti-diabetic activity in ICR mouse assessed as reduction in blood glucose level at 50 mg/kg, po pretreated for 60 mins followed by glucose challenge measured after 120 mins by OGTT relative to control; assay type: functional; design: scale not given: the % may be the effect or the level left
[4] = test system: Mus musculus; assay: Antidiabetic activity in HFD/STZ-induced type2 diabetic C57BL/6 mouse assessed as decrease in blood glucose excursion administered as single oral dose pretreated for 60 mins followed by glucose challenge after 120 mins by OGTT; assay type: functional
[5] = test system: Mus musculus; assay: Antidiabetic activity in HFD/STZ-induced type2 diabetic C57BL/6 mouse assessed as decrease in blood glucose AUC at 100 mg/kg, po administered as single dose 60 mins prior to glucose challenge measured 120 mins post dose by OGTT relative to control; assay type: functional; design: scale not given: the % may be the effect or the level left
[6] = test system: Mus musculus; assay: Decrease in plasma glucose level in po dosed ICR mouse 60 mins before oral glucose challenge by OGTT method; assay type: functional, organism-based; settings: TDE = time-dependent effect
[7] = test system: Mus musculus; assay: Anti-diabetic activity in ICR mouse assessed as reduction in blood glucose AUC at 50 mg/kg, po pretreated for 60 mins followed by glucose challenge measured after 120 mins by OGTT relative to control; assay type: functional; design: scale not given: the % may be the effect or the level left
[8] = test system: Mus musculus; assay: Anti-diabetic activity in ICR mouse assessed as reduction in blood glucose level at 200 mg/kg, po pretreated for 60 mins followed by glucose challenge measured after 120 mins by OGTT relative to control; assay type: functional; design: scale not given: the % may be the effect or the level left
[9] = biological target: T1, Free fatty acid receptor 1; assay: Agonist activity at FFA1 (unknown origin)

Activity [1] [%] | SMILES | also measured
83.8 | O=C(O)CCc1ccc(NCc2cccc(Oc3ccccc3)c2)cc1 | 
96.3 | Cc1cc(OCCCS(C)(=O)=O)cc(C)c1-c1cccc(COc2ccc3c(c2)OC[C@H]3CC(=O)O)c1 [FASIGLIFAM] | Activity [2]: 39.1%
45.8 | Cc1cccc(C)c1-c1cccc(C(=O)Nc2ccc(CCC(=O)O)cc2)c1 | Activity [3]: 23.7%; Activity [4]: Dose-dependent effect; Activity [5]: 29.1%; Activity [6]: Tde; Activity [7]: 23.7%
29.4 | Cc1cccc(C(=O)Nc2ccc(CCC(=O)O)cc2)c1 | Activity [6]: Tde; Activity [7]: 20.3%
34.3 | O=C(O)CCc1ccc(NC(=O)c2cccc(Oc3ccccc3)c2)cc1 | Activity [6]: Tde; Activity [7]: 12.8%
5.67 | Cc1ccccc1C(=O)Nc1ccc(CCC(=O)O)cc1 | 
19.8 | COc1cccc(C(=O)Nc2ccc(CCC(=O)O)cc2)c1 | 

Continued, compound first:

SMILES | Activity [1] [%] | also measured
COc1ccccc1C(=O)Nc1ccc(CCC(=O)O)cc1 | 1.26 | 
O=C(O)CCc1ccc(NC(=O)c2cccnc2)cc1 | 4.29 | 
O=C(O)CCc1ccc(NC(=O)c2ccc(Cl)cc2)cc1 | 17.9 | 
O=C(O)c1ccc(NC(=O)c2ccc(C(=O)c3ccccc3)cc2)cc1 | 15.3 | 
O=C(O)CCc1ccc(NC(=O)c2ccccc2[N+](=O)[O-])cc1 | 0.19 | 
Cc1ccc(C(=O)Nc2ccc(CCC(=O)O)cc2)cc1 | 19.4 | 
O=C(O)CCc1ccc(NC(=O)c2ccccc2Cl)cc1 | 7.73 | 
O=C(O)CCc1ccc(NC(=O)c2ccccc2)cc1 | 18.8 | 
O=C(O)CCc1ccc(NC(=O)c2ccsc2)cc1 | 15.4 | 
CN(C)C(=N)NC(=N)N [METFORMIN] |  | Activity [8]: 27.8%
CC#C[C@@H](CC(=O)O)c1ccc(NC(=O)C(=O)Nc2cccc(C(C)(C)C)c2)cc1 |  | EC50 [9]: 4 nM
O=C(O)CCc1ccc(NC(=O)c2cccc(Cl)c2)cc1 | 25.4 | Activity [6]: Tde
O=C(O)CCc1ccc(NC(=O)c2cccs2)cc1 | 13.8 | 
CC(C)(C)c1ccc(C(=O)Nc2ccc(CCC(=O)O)cc2)cc1 | 21.4 | Activity [6]: Tde
